Reference: paper PMC6683251, “Flavanol Bioavailability in Two Cocoa Products with Different Phenolic Content. A Comparative Study in Humans” (Nutrients, 2019)

Assay: Urinary excretion of flavanol metabolites (0-24 h) after a single serving of soluble cocoa product (HPLC-ESI-QToF-MS)
Assay type: in vivo, human
Settings: mean ± SD, n = 13; for Excreted in urine, Basal: basal urine (−2–0 h, before intake); for Excreted in urine, Total: 24 h urine
Procedure: They were non-smoker, non-vegetarian, non-pregnant women, who were not taking any medication or nutritional supplements, and were not suffering from any chronic pathology or gastrointestinal disorder. The sample size was estimated attending to similar previous bioavailability studies. The volunteers gave their informed consent prior to participation.
The present randomized, single-blind study was carried out at the Human Nutrition Unit (HNU) of the Institute of Food Science, Technology and Nutrition (ICTAN). Volunteers attended the HNU on two days, separated by two weeks. Three days previous to each visit, participants were instructed not to consume cocoa products (chocolate, soluble cocoa, etc.), juices, tea, wine, grape must, oranges, tangerines, apples, grapes, strawberries or other berries, beets, onions, soybeans and soy derivatives.
On each intervention day, volunteers arrived at the HNU after an overnight fast. […] The soluble cocoa products, either 15 g of CC or 25 g CC-PP, were dissolved in 200 mL of semi-skimmed milk following manufacturer’s preparation instructions. Plasma was separated by centrifugation (10 min, 3000 rpm, 4 °C) and stored at −80 °C until further analysis. […] A polyphenol-free breakfast, lunch and afternoon snack were provided 2 h, 4 h, and 8 h after consumption of cocoa products, and water and isotonic beverages were available ad libitum.
Urine samples were diluted with an equivalent volume of Milli-Q water (50%) and centrifuged at 14000 rpm (10 min, 4 °C). Supernatants were filtered (0.45 μm pore-size cellulose-acetate membrane filters) and a 5 µL aliquot was directly injected into the LC-ESI-QToF-MS equipment.
The test samples, either 30 μL of the plasma extract or 5 μL of diluted urine, were injected and separated using a mobile phase consisting of Milli-Q water (phase A) and acetonitrile (phase B), both containing 0.1% formic acid, at a flow rate of 0.3 mL/min. The mobile phase was initially programmed with 90% of solvent A and 10% of B. The elution program increased to 30% of solvent B in 10 min. Then, the initial conditions (10% solvent B) were recovered in 5 min and maintained for 5 min.
Due to the lack of standards for certain phase II metabolites, they were tentatively quantified using the calibration curves of their corresponding phenolic precursors. […] The rest of microbial metabolites identified, derivatives of hydroxyphenylpropionic, hydroxyphenylacetic, hydroxybenzoic and hippuric acids, were quantified using their respective commercially available standards. Urine concentration of the excreted metabolites was normalized by the volume excreted in each studied interval. […] Calibration curves were freshly prepared in a pool of both plasma and urine due to matrix effects.
Statistical analyses were carried out using the program SPSS (version 23.0, SPSS, Inc., IBM Company, New York, NY, USA). Significant differences between metabolites excreted in urine after consumption of CC and CC-PP cocoa products were evaluated based on non-parametric Wilcoxon test (p < 0.05). To determine the absorption and elimination of epicatechin metabolites after consumption of the soluble cocoa products, metabolite nutrikinetics were studied using the pharmacokinetic functions of Microsoft Excel, calculating the maximum concentration (Cmax), area under curve (AUC) and time to reach maximum concentration (Tmax). Data are expressed as mean ± standard deviation.

[1] = after CC-PP (68.25 mg flavanols)

| Compound | Excreted in urine, Basal (CC intervention) [µmol] | Excreted in urine, Basal (CC-PP intervention) | Excreted in urine, Total (after CC (19.80 mg flavanols)) | Excreted in urine, 0–4 h (after CC (19.80 mg flavanols)) | Excreted in urine, 4–8 h (after CC (19.80 mg flavanols)) | Excreted in urine, 8–12 h (after CC (19.80 mg flavanols)) | Excreted in urine, 12–24 h (after CC (19.80 mg flavanols)) | Excreted in urine, Total [1] | Excreted in urine, 0–4 h [1] | Excreted in urine, 4–8 h [1] | Excreted in urine, 8–12 h [1] | Excreted in urine, 12–24 h [1] |
| --- | --- | --- | --- | --- | --- | --- | --- | --- | --- | --- | --- | --- |
| O=C(O)CCc1ccc(O)c(O)c1 [3,4-Dihydroxyphenylpropionic acid] | 0.117 ± 0.024 | 0.213 ± 0.031 µmol | 0.866 ± 0.148 µmol | 0.217 ± 0.051 µmol | 0.243 ± 0.039 µmol | 0.074 ± 0.017 µmol | 0.215 ± 0.016 µmol | 1.117 ± 0.131 µmol | 0.256 ± 0.027 µmol | 0.238 ± 0.028 µmol | 0.109 ± 0.016 µmol | 0.301 ± 0.029 µmol |
| O=C1CCC(Cc2cccc(OC3OC(C(=O)O)C(O)C(O)C3O)c2)O1 (centres unmarked) [PVL-3′glucuronide, 5-Phenyl-γ-valerolactone-3′-glucuronide] |  | <L.Q. | 0.438 ± 0.255 µmol | <L.Q. | 0.233 ± 0.155 µmol | 0.126 ± 0.078 µmol | 0.079 ± 0.022 µmol | 1.316 ± 0.648 µmol | 0.108 ± 0.045 µmol | 0.521 ± 0.191 µmol | 0.179 ± 0.063 µmol | 0.508 ± 0.349 µmol |
| COc1ccc([C@H]2Oc3cc(O)cc(OS(=O)(=O)O)c3C[C@H]2O)cc1O (single isomer, unassigned) [Epicatechin-methoxy-sulfate (isomer 3), Epicatechin-methoxy-sulfate] |  |  | 0.758 ± 0.125 µmol | 0.473 ± 0.089 µmol | 0.285 ± 0.036 µmol | <L.Q. |  | 2.354 ± 0.402 µmol | 1.702 ± 0.243 µmol | 0.652 ± 0.148 µmol | <L.Q. | <L.Q. |
| COc1cc(CC(=O)O)ccc1O [3-Methoxy-4-hydroxyphenylacetic acid] | 0.103 ± 0.014 | 0.198 ± 0.071 µmol | 0.398 ± 0.118 µmol | 0.099 ± 0.054 µmol | 0.093 ± 0.028 µmol | <L.Q. | 0.103 ± 0.022 µmol | 0.648 ± 0.178 µmol | 0.188 ± 0.026 µmol | 0.124 ± 0.050 µmol | <L.Q. | 0.138 ± 0.016 µmol |
| 4-Hydroxy-5-(hydroxyphenyl)valeric acid-glucuronide [HHPVA-glucuronide] |  |  |  |  |  |  |  | 1.052 ± 0.182 µmol | <L.Q. | 0.714 ± 0.088 µmol | 0.087 ± 0.019 µmol | 0.251 ± 0.075 µmol |
| O=C(O)CCC(O)Cc1ccc(O)c(O)c1 (centres unmarked) [HDHPVA, 4-Hydroxy-5-(3′,4′-dihydroxyphenyl)valeric acid] |  |  | <L.Q. |  | <L.Q. | <L.Q. | <L.Q. | <L.Q. | <L.Q. | <L.Q. | <L.Q. | <L.Q. |
| COc1ccc(/C=C/C(=O)O)cc1O [Isoferulic acid] | 0.170 ± 0.137 | <L.Q. | 0.522 ± 0.290 µmol | 0.086 ± 0.028 µmol | 0.096 ± 0.040 µmol | 0.088 ± 0.069 µmol | 0.082 ± 0.016 µmol | 0.686 ± 0.356 µmol | 0.164 ± 0.044 µmol | 0.160 ± 0.066 µmol | 0.152 ± 0.094 µmol | 0.210 ± 0.152 µmol |
| O=C(O)Cc1ccc(O)c(O)c1 [3,4-Dihydroxyphenylacetic acid] | 0.094 ± 0.032 | 0.109 ± 0.015 µmol | 1.525 ± 0.974 µmol | 0.648 ± 0.505 µmol | 0.556 ± 0.379 µmol | 0.094 ± 0.033 µmol | 0.133 ± 0.020 µmol | 2.153 ± 0.401 µmol | 0.751 ± 0.057 µmol | 0.556 ± 0.096 µmol | 0.198 ± 0.037 µmol | 0.539 ± 0.196 µmol |
| O=C(O)c1ccc(O)c(O)c1 [Protocatechuic acid, 3,4-Dihydroxybenzoic acid] | 0.161 ± 0.071 | 0.088 ± 0.014 µmol | 0.959 ± 0.217 µmol | 0.227 ± 0.142 µmol | 0.373 ± 0.237 µmol | 0.094 ± 0.047 µmol | 0.104 ± 0.044 µmol | 0.528 ± 0.105 µmol | 0.105 ± 0.016 µmol | 0.113 ± 0.020 µmol | 0.095 ± 0.040 µmol | 0.127 ± 0.015 µmol |
| COc1cc(CCC(=O)O)ccc1O [3-Methoxy-4-hydroxyphenylpropionic acid] | 0.104 ± 0.027 | 0.077 ± 0.032 µmol | 0.248 ± 0.071 µmol | 0.144 ± 0.044 µmol | <L.Q. | <L.Q. | <L.Q. | 0.461 ± 0.138 µmol | 0.175 ± 0.054 µmol | <L.Q. | <L.Q. | 0.199 ± 0.052 µmol |
| Epicatechin-3′-methoxy-glucuronide |  |  | <L.Q. * | <L.Q. | <L.Q. |  |  | 0.121 ± 0.036 µmol | 0.121 ± 0.036 µmol | <L.Q. | <L.Q. |  |
